Article doi:10.1101/2023.11.24.568596v1 (biorxiv, 2023)
Values belong to the molecule of their own block, whether it stands above or below them.

Legend:
Conditions in all cases: binder
[1] = target: FES (Homo sapiens, UniProt P07332)
[2] = target: T1, TTK (Homo sapiens, UniProt P33981)
T1 sequence (P33981 1-857): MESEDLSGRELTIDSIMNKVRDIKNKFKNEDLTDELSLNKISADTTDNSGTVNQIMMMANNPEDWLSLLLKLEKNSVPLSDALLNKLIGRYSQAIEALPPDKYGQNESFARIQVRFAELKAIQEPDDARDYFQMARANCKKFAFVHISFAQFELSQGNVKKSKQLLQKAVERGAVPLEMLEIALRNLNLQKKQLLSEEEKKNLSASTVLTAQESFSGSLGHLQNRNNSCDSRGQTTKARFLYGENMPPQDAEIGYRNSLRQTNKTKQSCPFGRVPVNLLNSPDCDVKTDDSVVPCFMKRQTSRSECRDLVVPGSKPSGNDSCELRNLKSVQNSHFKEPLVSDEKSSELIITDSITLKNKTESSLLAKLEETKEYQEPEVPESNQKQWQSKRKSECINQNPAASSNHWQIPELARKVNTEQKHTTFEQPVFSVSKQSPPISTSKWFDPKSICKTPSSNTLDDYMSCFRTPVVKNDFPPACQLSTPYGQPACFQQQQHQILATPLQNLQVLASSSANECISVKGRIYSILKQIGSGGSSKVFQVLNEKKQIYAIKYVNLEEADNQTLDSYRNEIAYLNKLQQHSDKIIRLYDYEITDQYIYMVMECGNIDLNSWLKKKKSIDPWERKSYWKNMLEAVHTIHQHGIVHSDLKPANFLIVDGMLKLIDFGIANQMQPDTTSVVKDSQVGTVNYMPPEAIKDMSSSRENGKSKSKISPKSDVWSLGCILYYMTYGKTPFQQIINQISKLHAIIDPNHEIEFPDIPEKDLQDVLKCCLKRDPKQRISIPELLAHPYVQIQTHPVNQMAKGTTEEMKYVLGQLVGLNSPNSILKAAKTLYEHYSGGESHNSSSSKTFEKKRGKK

[3] = target: Erk2 (Homo sapiens, UniProt P28482)
[4] = target: T2, BMPR2 (Homo sapiens, UniProt Q13873)
T2 sequence (Q13873 1-1038): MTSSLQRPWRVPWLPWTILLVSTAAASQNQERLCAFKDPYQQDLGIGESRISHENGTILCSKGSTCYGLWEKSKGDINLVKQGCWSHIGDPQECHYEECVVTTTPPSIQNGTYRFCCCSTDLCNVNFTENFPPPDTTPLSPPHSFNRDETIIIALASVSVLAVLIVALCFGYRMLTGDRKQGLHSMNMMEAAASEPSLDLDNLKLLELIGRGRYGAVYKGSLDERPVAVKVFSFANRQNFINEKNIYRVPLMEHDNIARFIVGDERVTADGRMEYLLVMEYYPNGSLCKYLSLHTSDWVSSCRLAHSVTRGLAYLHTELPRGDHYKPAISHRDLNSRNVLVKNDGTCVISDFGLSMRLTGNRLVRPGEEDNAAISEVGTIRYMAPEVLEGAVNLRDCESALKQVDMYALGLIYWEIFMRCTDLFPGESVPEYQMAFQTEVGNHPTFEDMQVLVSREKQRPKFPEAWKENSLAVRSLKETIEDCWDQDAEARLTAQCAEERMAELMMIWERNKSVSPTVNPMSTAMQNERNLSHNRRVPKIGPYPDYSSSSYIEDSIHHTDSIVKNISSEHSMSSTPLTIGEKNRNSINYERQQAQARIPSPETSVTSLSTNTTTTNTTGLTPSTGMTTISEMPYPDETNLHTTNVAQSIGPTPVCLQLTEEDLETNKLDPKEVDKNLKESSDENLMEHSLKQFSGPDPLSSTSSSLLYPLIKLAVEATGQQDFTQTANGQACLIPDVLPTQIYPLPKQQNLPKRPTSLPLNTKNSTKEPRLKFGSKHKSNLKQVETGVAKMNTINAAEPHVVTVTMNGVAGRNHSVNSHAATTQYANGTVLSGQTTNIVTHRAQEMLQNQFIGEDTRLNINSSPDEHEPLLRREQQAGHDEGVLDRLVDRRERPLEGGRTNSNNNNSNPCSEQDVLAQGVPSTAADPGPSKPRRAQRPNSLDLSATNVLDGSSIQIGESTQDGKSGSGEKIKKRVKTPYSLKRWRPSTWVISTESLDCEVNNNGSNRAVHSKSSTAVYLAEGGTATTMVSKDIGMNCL

Chain of FES (P07332 whole entry): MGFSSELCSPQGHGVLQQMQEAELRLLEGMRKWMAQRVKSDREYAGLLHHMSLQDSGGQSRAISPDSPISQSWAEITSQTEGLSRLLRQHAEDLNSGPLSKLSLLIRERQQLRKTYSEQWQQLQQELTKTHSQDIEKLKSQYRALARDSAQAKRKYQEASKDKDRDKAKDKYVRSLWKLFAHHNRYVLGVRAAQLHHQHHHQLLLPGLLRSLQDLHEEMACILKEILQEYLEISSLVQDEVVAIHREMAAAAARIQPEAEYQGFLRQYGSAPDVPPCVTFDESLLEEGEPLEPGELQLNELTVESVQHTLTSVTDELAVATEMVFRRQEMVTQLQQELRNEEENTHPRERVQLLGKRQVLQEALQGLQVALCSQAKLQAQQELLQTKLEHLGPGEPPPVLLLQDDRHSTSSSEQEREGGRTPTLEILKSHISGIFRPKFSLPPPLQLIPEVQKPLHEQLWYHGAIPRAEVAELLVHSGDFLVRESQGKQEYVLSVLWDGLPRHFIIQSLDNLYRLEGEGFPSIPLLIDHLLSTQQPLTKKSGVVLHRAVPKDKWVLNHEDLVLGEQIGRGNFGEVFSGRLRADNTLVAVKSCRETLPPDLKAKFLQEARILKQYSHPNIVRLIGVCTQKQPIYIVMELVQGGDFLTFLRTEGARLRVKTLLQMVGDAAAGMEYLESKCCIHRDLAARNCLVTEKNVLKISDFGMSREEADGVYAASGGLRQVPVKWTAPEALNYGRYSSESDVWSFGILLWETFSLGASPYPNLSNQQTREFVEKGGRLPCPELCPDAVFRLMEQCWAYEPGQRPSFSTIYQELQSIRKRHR
Chain of Erk2 (P28482 whole entry): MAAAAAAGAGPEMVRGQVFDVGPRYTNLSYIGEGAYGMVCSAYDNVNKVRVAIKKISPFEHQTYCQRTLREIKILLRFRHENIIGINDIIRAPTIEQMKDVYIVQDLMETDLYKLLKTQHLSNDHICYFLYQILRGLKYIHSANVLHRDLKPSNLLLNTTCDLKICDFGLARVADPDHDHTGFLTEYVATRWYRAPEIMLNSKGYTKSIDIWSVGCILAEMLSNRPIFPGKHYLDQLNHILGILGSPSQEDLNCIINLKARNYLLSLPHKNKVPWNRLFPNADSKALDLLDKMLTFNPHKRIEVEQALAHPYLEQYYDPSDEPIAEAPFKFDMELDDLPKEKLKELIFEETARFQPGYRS

dTm 33 [1]: 8.9 °C | dTm 33 [2]: 1.3 °C | dTm 33 [3]: -0.7 °C | dTm 33 [4]: -0.1 °C
SMILES: Cc1cccc(-c2ccc(-c3cc4cnc(Nc5ccc(F)c(CO)c5)nc4n(CCCCN)c3=O)c(Cl)c2)n1 [compound 33, 8-(4-Aminobutyl)-6-(2-chloro-4-(6-methylpyridin-2-yl)phenyl)-2-((4-fluoro-3-(hydroxymethyl)phenyl)amino)pyrido[2,3-d]pyrimidin-7(8H)-one]

dTm 34 [1]: 7.6 °C | dTm 34 [2]: 2.9 °C | dTm 34 [3]: -2.7 °C | dTm 34 [4]: 0.0 °C
SMILES: COc1ccc(O)c(Nc2ncc3cc(-c4ccc(-c5cccc(C)n5)cc4Cl)c(=O)n(CCCCN)c3n2)c1 [compound 34, 8-(4-Aminobutyl)-6-(2-chloro-4-(6-methylpyridin-2-yl)phenyl)-2-((2-hydroxy-5-methoxy-phenyl)amino)pyrido[2,3-d]pyrimidin-7(8H)-one]

dTm 35 [1]: 8.3 °C | dTm 35 [2]: 7.8 °C | dTm 35 [3]: -3.0 °C | dTm 35 [4]: -1.0 °C
SMILES: COc1cc(N2CCOCC2)ccc1Nc1ncc2cc(-c3ccc(-c4cccc(C)n4)cc3Cl)c(=O)n(CCCCN)c2n1 [compound 35, 8-(4-Aminobutyl)-6-(2-chloro-4-(6-methylpyridin-2-yl)phenyl)-2-((2-methoxy-4-morpholino-phenyl)amino)pyrido[2,3-d]pyrimidin-7(8H)-one]

dTm 36 [1]: 9.0 °C | dTm 36 [2]: 4.3 °C | dTm 36 [3]: -2.7 °C | dTm 36 [4]: -0.2 °C
SMILES: COc1cc(N2CCN(C)CC2)ccc1Nc1ncc2cc(-c3ccc(-c4cccc(C)n4)cc3Cl)c(=O)n(CCCCN)c2n1 [compound 36, 8-(4-Aminobutyl)-6-(2-chloro-4-(6-methylpyridin-2-yl)phenyl)-2-((2-methoxy-4-(4-methylpiperazin-1-yl)phenyl)amino)pyrido[2,3-d]pyrimidin-7(8H)-one]
